Experimental data published in PubChem BioAssay AID1919010 (Molecular Pharmacology Branch, DTP, NCI, 2023).
Values joined by “and” are separate entries in the source; they are usually repeats but may differ in a detail not shown here. Equal entries are not always repeated. Blank lines part the entries; values can stand above or below the compound they belong to.

Tested on: Hs578T complex spheroid growth, percent test/control
Assay: Anticancer human tumor Hs578T cell line growth inhibition [AhR];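 note: luminescent viability signal as a proxy for spheroid growth; spheroids exposed to agents for one week after three days of growth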
Conditions: for viability, T/C: stronger effect = lower value
Summary of the method: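 Agents were dosed in half-log steps down from roughly clinical Cmax, or from 10 microM where Cmax was unknown, alone and with AhR antagonists. Read-out: percent test/control growth of tumor spheroids containing HUVEC and MSC stromal cells.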

[1] = curve of first compound, second compound 0.1 µM
[2] = curve of first compound, second compound 0.316 µM
[3] = curve of first compound, second compound 1 µM
[4] = curve of first compound, second compound 3.16 µM
[5] = curve of first compound, second compound 10 µM
[6] = second compound 0.1 µM, first compound 0.00316 µM
[7] = second compound 0.1 µM, first compound 0.01 µM
[8] = second compound 0.1 µM, first compound 0.0316 µM
[9] = second compound 0.1 µM, first compound 0.1 µM
[10] = second compound 0.316 µM, first compound 0.00316 µM
[11] = second compound 0.316 µM, first compound 0.01 µM
[12] = second compound 0.316 µM, first compound 0.0316 µM
[13] = second compound 0.316 µM, first compound 0.1 µM
[14] = second compound 1 µM, first compound 0.00316 µM
[15] = second compound 1 µM, first compound 0.01 µM
[16] = second compound 1 µM, first compound 0.0316 µM
[17] = second compound 1 µM, first compound 0.1 µM
[18] = second compound 3.16 µM, first compound 0.00316 µM
[19] = second compound 3.16 µM, first compound 0.01 µM
[20] = second compound 3.16 µM, first compound 0.0316 µM
[21] = second compound 3.16 µM, first compound 0.1 µM
[22] = second compound 10 µM, first compound 0.00316 µM
[23] = second compound 10 µM, first compound 0.01 µM
[24] = second compound 10 µM, first compound 0.0316 µM
[25] = second compound 10 µM, first compound 0.1 µM
[26] = second compound 0.1 µM, first compound 0.316 µM
[27] = second compound 0.1 µM, first compound 1 µM
[28] = second compound 0.316 µM, first compound 0.316 µM
[29] = second compound 0.316 µM, first compound 1 µM
[30] = second compound 1 µM, first compound 0.316 µM
[31] = second compound 1 µM, first compound 1 µM
[32] = second compound 3.16 µM, first compound 0.316 µM
[33] = second compound 3.16 µM, first compound 1 µM
[34] = second compound 10 µM, first compound 0.316 µM
[35] = second compound 10 µM, first compound 1 µM

Compound: CC(C)c1c(-c2ccccc2)nc2c(C#N)c[nH]n2c1=O
viability, T/C (compound 0.0316 µM): 103% and 106% and 97.8%
viability, T/C (compound 0.1 µM): 106% and 114% and 105%
viability, T/C (compound 0.316 µM): 102% and 101% and 106%
viability, T/C (compound 1 µM): 113% and 101% and 100%
viability, T/C (compound 3.16 µM): 102% and 116% and 98.1%
viability, T/C (compound 10 µM): 101% and 115% and 93.1%
IC50 (curve of compound): > 10000 nM

Compound: COc1cc(C2c3cc4c(cc3C(OC3OC5COC(C)OC5C(O)C3O)C3COC(=O)C23)OCO4)cc(OC)c1O (stereo unspecified) + Cc1ccccc1N=Nc1ccc(NC(=O)c2ccnn2C)c(C)c1
IC50 [1]: > 10000 nM
IC50 [2]: > 10000 nM
IC50 [3]: > 10000 nM
IC50 [4]: 8990 nM
IC50 [5]: 5160 nM
viability, T/C [8]: 97.1%
viability, T/C [9]: 96.1%
viability, T/C [26]: 77.3%
viability, T/C [27]: 72.8%
viability, T/C (second compound 0.1 µM, first compound 3.16 µM): 79.5%
viability, T/C (second compound 0.1 µM, first compound 10 µM): 57.9%
viability, T/C [12]: 101%
viability, T/C [13]: 103%
viability, T/C [28]: 88.9%
viability, T/C [29]: 83.1%
viability, T/C (second compound 0.316 µM, first compound 3.16 µM): 72.2%
viability, T/C (second compound 0.316 µM, first compound 10 µM): 68.9%
viability, T/C [16]: 92.6%
viability, T/C [17]: 86.4%
viability, T/C [30]: 77.3%
viability, T/C [31]: 73.9%
viability, T/C (second compound 1 µM, first compound 3.16 µM): 66.3%
viability, T/C (second compound 1 µM, first compound 10 µM): 63.1%
viability, T/C [20]: 81.2%
viability, T/C [21]: 78.8%
viability, T/C [32]: 76.9%
viability, T/C [33]: 73.7%
viability, T/C (second compound 3.16 µM, first compound 3.16 µM): 68.5%
viability, T/C (second compound 3.16 µM, first compound 10 µM): 48%
viability, T/C [24]: 68.6%
viability, T/C [25]: 68.1%
viability, T/C [34]: 67.6%
viability, T/C [35]: 57.6%
viability, T/C (second compound 10 µM, first compound 3.16 µM): 54.4%
viability, T/C (second compound 10 µM, first compound 10 µM): 44.9%

Compound: O=C(C=Cn1cnc(-c2cc(C(F)(F)F)cc(C(F)(F)F)c2)n1)NNc1cnccn1 + Cc1ccccc1N=Nc1ccc(NC(=O)c2ccnn2C)c(C)c1
IC50 [1]: 177 nM
IC50 [2]: 184 nM
IC50 [3]: 165 nM
IC50 [4]: 171 nM
IC50 [5]: 84.5 nM
viability, T/C (second compound 0.1 µM, first compound 0.00949 µM): 85%
viability, T/C (second compound 0.1 µM, first compound 0.03 µM): 90.5%
viability, T/C (second compound 0.1 µM, first compound 0.0949 µM): 72.8%
viability, T/C (second compound 0.1 µM, first compound 0.3 µM): 30.3%
viability, T/C (second compound 0.1 µM, first compound 0.949 µM): 11.2%
viability, T/C (second compound 0.1 µM, first compound 3 µM): 10.7%
viability, T/C (second compound 0.316 µM, first compound 0.00949 µM): 91.6%
viability, T/C (second compound 0.316 µM, first compound 0.03 µM): 88.5%
viability, T/C (second compound 0.316 µM, first compound 0.0949 µM): 76.9%
viability, T/C (second compound 0.316 µM, first compound 0.3 µM): 30.3%
viability, T/C (second compound 0.316 µM, first compound 0.949 µM): 8.26%
viability, T/C (second compound 0.316 µM, first compound 3 µM): 10.9%
viability, T/C (second compound 1 µM, first compound 0.00949 µM): 87%
viability, T/C (second compound 1 µM, first compound 0.03 µM): 82.5%
viability, T/C (second compound 1 µM, first compound 0.0949 µM): 68.8%
viability, T/C (second compound 1 µM, first compound 0.3 µM): 30.2%
viability, T/C (second compound 1 µM, first compound 0.949 µM): 10.4%
viability, T/C (second compound 1 µM, first compound 3 µM): 13.2%
viability, T/C (second compound 3.16 µM, first compound 0.00949 µM): 84%
viability, T/C (second compound 3.16 µM, first compound 0.03 µM): 79.8%
viability, T/C (second compound 3.16 µM, first compound 0.0949 µM): 70.7%
viability, T/C (second compound 3.16 µM, first compound 0.3 µM): 30.8%
viability, T/C (second compound 3.16 µM, first compound 0.949 µM): 9.79%
viability, T/C (second compound 3.16 µM, first compound 3 µM): 13%
viability, T/C (second compound 10 µM, first compound 0.00949 µM): 68%
viability, T/C (second compound 10 µM, first compound 0.03 µM): 64.2%
viability, T/C (second compound 10 µM, first compound 0.0949 µM): 47%
viability, T/C (second compound 10 µM, first compound 0.3 µM): 29.6%
viability, T/C (second compound 10 µM, first compound 0.949 µM): 11.9%
viability, T/C (second compound 10 µM, first compound 3 µM): 12.1%

Compound: CC1COCCN1c1cc(-c2ccnn2C)c2ccnc(-c3ccn[nH]3)c2n1 (stereo unspecified) + Cc1cncc(-c2nc(NCCc3c[nH]c4ccccc34)c3ncn(C(C)C)c3n2)c1
IC50 [1]: 589 nM
IC50 [2]: 662 nM
IC50 [3]: 342 nM
IC50 [4]: 104 nM
IC50 [5]: < 3.16 nM
viability, T/C [6]: 109%
viability, T/C [7]: 117%
viability, T/C [8]: 109%
viability, T/C [9]: 96.8%
viability, T/C [26]: 55.8%
viability, T/C [27]: 45.1%
viability, T/C [10]: 108%
viability, T/C [11]: 116%
viability, T/C [12]: 109%
viability, T/C [13]: 91.8%
viability, T/C [28]: 57.2%
viability, T/C [29]: 46%
viability, T/C [14]: 109%
viability, T/C [15]: 116%
viability, T/C [16]: 103%
viability, T/C [17]: 81.7%
viability, T/C [30]: 50.6%
viability, T/C [31]: 38.5%
viability, T/C [18]: 62.9%
viability, T/C [19]: 65%
viability, T/C [20]: 58.8%
viability, T/C [21]: 51.3%
viability, T/C [32]: 35.1%
viability, T/C [33]: 37.7%
viability, T/C [22]: 4.51%
viability, T/C [23]: 3.84%
viability, T/C [24]: 4.82%
viability, T/C [25]: 4.52%
viability, T/C [34]: 4.47%
viability, T/C [35]: 7.62%

Second part, led by results:

IC50 [1]: > 100 nM
IC50 [2]: > 100 nM
IC50 [3]: > 100 nM
IC50 [4]: 14.7 nM
IC50 [5]: < 0.316 nM
Compound: CC[C@@]1(O)C(=O)OCc2c1cc1n(c2=O)Cc2cc3c(CN(C)C)c(O)ccc3nc2-1 + Cc1cncc(-c2nc(NCCc3c[nH]c4ccccc34)c3ncn(C(C)C)c3n2)c1
viability, T/C (second compound 0.1 µM, first compound 0.000316 µM): 109%
viability, T/C (second compound 0.1 µM, first compound 0.001 µM): 112%
viability, T/C [6]: 95.3%
viability, T/C [7]: 91.8%
viability, T/C [8]: 81.7%
viability, T/C [9]: 71.1%
viability, T/C (second compound 0.316 µM, first compound 0.000316 µM): 113%
viability, T/C (second compound 0.316 µM, first compound 0.001 µM): 112%
viability, T/C [10]: 108%
viability, T/C [11]: 86.2%
viability, T/C [12]: 80.5%
viability, T/C [13]: 76.8%
viability, T/C (second compound 1 µM, first compound 0.000316 µM): 102%
viability, T/C (second compound 1 µM, first compound 0.001 µM): 121%
viability, T/C [14]: 98.2%
viability, T/C [15]: 86.9%
viability, T/C [16]: 74.6%
viability, T/C [17]: 72.4%
viability, T/C (second compound 3.16 µM, first compound 0.000316 µM): 68.3%
viability, T/C (second compound 3.16 µM, first compound 0.001 µM): 72.9%
viability, T/C [18]: 67.6%
viability, T/C [19]: 52.4%
viability, T/C [20]: 44.5%
viability, T/C [21]: 46.4%
viability, T/C (second compound 10 µM, first compound 0.000316 µM): 9.03%
viability, T/C (second compound 10 µM, first compound 0.001 µM): 8.61%
viability, T/C [22]: 7.61%
viability, T/C [23]: 6.12%
viability, T/C [24]: 6.14%
viability, T/C [25]: 6.3%

IC50 (curve of compound): > 300 nM
Compound: Nc1ncn(C2CC(O)C(CO)S2)c(=O)n1 (stereo unspecified)
viability, T/C (compound 0.000949 µM): 112% and 105% and 101%
viability, T/C (compound 0.003 µM): 100% and 106% and 101%
viability, T/C (compound 0.00949 µM): 116% and 96% and 105%
viability, T/C (compound 0.03 µM): 102% and 97.7% and 101%
viability, T/C (compound 0.0949 µM): 102% and 97.4% and 104%
viability, T/C (compound 0.3 µM): 98.1% and 90.8% and 94.5%

IC50 (curve of compound): 448 nM and 364 nM and 406 nM
Compound: COc1cccc2c1C(=O)c1c(O)c3c(c(O)c1C2=O)CC(O)(C(=O)CO)CC3OC1CC(N)C(O)C(C)O1 (stereo unspecified)
viability, T/C (compound 0.0316 µM): 94.7% and 85.6% and 84.9%
viability, T/C (compound 0.1 µM): 76.8% and 79.4% and 75.8%
viability, T/C (compound 0.316 µM): 64.8% and 54.3% and 58.2%
viability, T/C (compound 1 µM): 22.9% and 18.6% and 23.3%
viability, T/C (compound 3.16 µM): 3.73% and 2.18% and 2.52%
viability, T/C (compound 10 µM): 3.36% and 2.24% and 3.77%
